Reference: ChEMBL document CHEMBL5357027, “Annonaceous Acetogenins Synergistically Inhibit Hepatocellular Carcinoma with Sorafenib” (J Nat Prod, 2024)
Calls of active or inactive are those of the source. The calls are words filed in the database; no cut-off is given here.

Experiments:
[1] = test system: HCCLM3; assay: Inhibition of mitochondrial respiratory chain complex I in human HCCLM3 incubated for 24 hrs; assay type: cell-based
[2] = test system: MHCC97H; assay: Synergistic cytotoxicity against human MHCC97H cells assessed as cell growth inhibition by measuring synergy score at 1 to 16 uM incubated for 48 hrs in presence of sorafenib at 1 to 16 uM by MTT assay; assay type: functional; settings: dose 1-16 µM
[3] = test system: MHCC97H; assay: Cytotoxicity against human MHCC97H cells assessed as cell growth inhibition incubated for 48 hrs by MTT assay; assay type: functional, cell-based
[4] = test system: Huh-7; assay: Cytotoxicity against human Huh-7 cells assessed as cell growth inhibition incubated for 48 hrs by MTT assay; assay type: functional, cell-based; settings: Huh-7, 48 h
[5] = test system: Huh-7; assay: Synergistic cytotoxicity against human Huh-7 cells assessed as cell growth inhibition by measuring synergy score at 1 to 16 uM incubated for 48 hrs in presence of sorafenib at 1 to 16 uM by MTT assay; assay type: functional; settings: dose 1-16 µM
[6] = test system: HCCLM3; assay: Cytotoxicity against human HCCLM3 cells assessed as cell growth inhibition incubated for 48 hrs by MTT assay; assay type: functional, cell-based; settings: HCCLM3, 48 h
[7] = test system: HCCLM3; assay: Synergistic cytotoxicity against human HCCLM3 cells assessed as cell growth inhibition by measuring synergy score at 1 to 16 uM incubated for 48 hrs in presence of sorafenib at 1 to 16 uM by MTT assay; assay type: functional; settings: dose 1-16 µM
[8] = test system: HepG2; assay: Cytotoxicity against human HepG2 cells assessed as cell growth inhibition incubated for 48 hrs by MTT assay; assay type: functional, cell-based; settings: HepG2, 48 h
[9] = test system: HepG2; assay: Synergistic cytotoxicity against human HepG2 cells assessed as cell growth inhibition by measuring synergy score at 1 to 16 uM incubated for 48 hrs in presence of sorafenib at 1 to 16 uM by MTT assay; assay type: functional; settings: dose 1-16 µM
[10] = test system: HCCLM3; assay: Induction of apoptosis in human HCCLM3 cells assessed as early apoptotic cells at 4 uM incubated for 48 hrs by Annexin V/FITC-PI staining based flow cytometry (reference value: 0.05%); assay type: functional
[11] = test system: HCCLM3; assay: Induction of apoptosis in human HCCLM3 cells assessed as viable cells at 4 uM incubated for 48 hrs by Annexin V/FITC-PI staining based flow cytometry (reference value: 96.55%); assay type: functional; settings: read-out: Activity
[12] = test system: HCCLM3; assay: Induction of apoptosis in human HCCLM3 cells assessed as early apoptotic cells at 4 uM incubated for 48 hrs in presence of 4uM sorafenib by Annexin V/FITC-PI staining based flow cytometry (reference value: 0.05%); assay type: functional
[13] = test system: HCCLM3; assay: Induction of apoptosis in human HCCLM3 cells assessed as necrotic cells at 4 uM incubated for 48 hrs in presence of 4uM sorafenib by Annexin V/FITC-PI staining based flow cytometry (reference value: 3.33%); assay type: functional
[14] = test system: HCCLM3; assay: Induction of apoptosis in human HCCLM3 cells assessed as necrotic cells at 4 uM incubated for 48 hrs by Annexin V/FITC-PI staining based flow cytometry (reference value: 3.33%); assay type: functional
[15] = test system: HepG2; assay: Synergistic inhibition of mitochondrial function in human HepG2 cells assessed as reduction in intracellular ATP level at 8 uM incubated for 48 hrs in presence of 16 uM sorafenib; assay type: functional, cell-based
[16] = test system: MHCC97H; assay: Synergistic inhibition of mitochondrial function in human MHCC97H cells assessed as reduction in intracellular ATP level at 8 uM incubated for 48 hrs in presence of 16 uM sorafenib; assay type: functional, cell-based
[17] = test system: HCCLM3; assay: Induction of apoptosis in human HCCLM3 cells assessed as viable cells at 4 uM incubated for 48 hrs in presence of 4uM sorafenib by Annexin V/FITC-PI staining based flow cytometry (reference value: 96.55%); assay type: functional; settings: read-out: Activity
[18] = test system: HCCLM3; assay: Induction of apoptosis in human HCCLM3 cells assessed as late apoptotic cells at 4 uM incubated for 48 hrs by Annexin V/FITC-PI staining based flow cytometry (reference value: 0.07%); assay type: functional
[19] = test system: HCCLM3; assay: Inhibition of mitochondrial function in human HCCLM3 cells assessed as reduction in ATP production at 8 uM incubated for 48 hrs; assay type: functional, cell-based
[20] = test system: MHCC97H; assay: Inhibition of mitochondrial function in human MHCC97H cells assessed as reduction in ATP production at 8 uM incubated for 48 hrs; assay type: functional, cell-based
[21] = test system: HCCLM3; assay: Induction of apoptosis in human HCCLM3 cells assessed as apoptotic ratio at 4 uM incubated for 48 hrs in presence of 4uM sorafenib by Annexin V/FITC-PI staining based flow cytometry relative to control; assay type: functional
[22] = test system: HCCLM3; assay: Induction of apoptosis in human HCCLM3 cells assessed as late apoptotic cells at 4 uM incubated for 48 hrs in presence of 4uM sorafenib by Annexin V/FITC-PI staining based flow cytometry (reference value: 0.07%); assay type: functional
[23] = test system: HCCLM3; assay: Synergistic inhibition of mitochondrial function in human HCCLM3 cells assessed as reduction in intracellular ATP level at 8 uM incubated for 48 hrs in presence of 16 uM sorafenib; assay type: functional, cell-based
[24] = test system: HepG2; assay: Inhibition of mitochondrial function in human HepG2 cells assessed as reduction in ATP production at 8 uM incubated for 48 hrs; assay type: functional, cell-based
[25] = test system: Huh-7; assay: Inhibition of mitochondrial function in human Huh-7 cells assessed as reduction in ATP production at 8 uM incubated for 48 hrs; assay type: functional, cell-based
[26] = test system: Huh-7; assay: Synergistic inhibition of mitochondrial function in human Huh-7 cells assessed as reduction in intracellular ATP level at 8 uM incubated for 48 hrs in presence of 16 uM sorafenib; assay type: functional, cell-based
[27] = Toxicity in nude mouse xenografted with human HCCLM3 cells assessed as heart damage at 4 to 8 mg/kg, PO measured for 21 days by H and E staining based; assay type: organism-based; settings: in vivo, 504 h, dose 4-8 mg/kg, time 21 day
[28] = Toxicity in nude mouse xenografted with human HCCLM3 cells assessed as kidney damage at 1 to 8 mg/kg, PO in presence of sorafenib measured for 21 days by H and E staining based analysis; assay type: organism-based; settings: in vivo, 504 h, dose 1-8 mg/kg, time 21 day
[29] = Toxicity in nude mouse xenografted with human HCCLM3 cells assessed as kidney damage at 4 to 8 mg/kg, PO measured for 21 days by H and E staining based analysis; assay type: organism-based; settings: in vivo, 504 h, dose 4-8 mg/kg, time 21 day
[30] = test system: HCCLM3; assay: Synergistic antitumor activity against human HCCLM3 cells xenografted in nude mouse assessed as decrease in tumor weight at 4 to 8 mg/kg, PO in presence of 32 mg/kg sorafenib measured every other day for 21 days; assay type: functional, organism-based; settings: dose 4-8 mg/kg, time 21.0 day
[31] = test system: HCCLM3; assay: Synergistic antitumor activity against human HCCLM3 cells xenografted in nude mouse assessed as induction of aPOptosis in tumor at 4 to 8 mg/kg, PO in presence of 32 mg/kg sorafenib and measured for 21 days by tunel staining based immunohistochemical analysis; assay type: functional, organism-based; settings: dose 4-8 mg/kg, time 21.0 day
[32] = Toxicity in nude mouse xenografted with human HCCLM3 cells assessed as lung damage at 4 to 8 mg/kg, PO measured for 21 days by H and E staining based analysis; assay type: organism-based; settings: in vivo, 504 h, dose 4-8 mg/kg, time 21 day
[33] = Toxicity in nude mouse xenografted with human HCCLM3 cells assessed as decrease in body weight at 4 to 8 mg/kg, PO measured every other day for 21 days; assay type: organism-based; settings: in vivo, 504 h, dose 4-8 mg/kg, time 21 day
[34] = Toxicity in nude mouse xenografted with human HCCLM3 cells assessed as liver damage at 4 to 8 mg/kg, PO measured for 21 days by H and E staining based analysis; assay type: organism-based; settings: in vivo, 504 h, dose 4-8 mg/kg, time 21 day
[35] = Toxicity in nude mouse xenografted with human HCCLM3 cells assessed as decrease in body weight at 1 to 8 mg/kg, PO in presence of sorafenib measured every other day for 21 days; assay type: organism-based; settings: in vivo, 504 h, dose 1-8 mg/kg, time 21 day
[36] = Toxicity in nude mouse xenografted with human HCCLM3 cells assessed as heart damage at 1 to 8 mg/kg, PO in presence of sorafenib measured for 21 days by H and E staining based; assay type: organism-based; settings: in vivo, 504 h, dose 1-8 mg/kg, time 21 day
[37] = test system: HCCLM3; assay: Synergistic antitumor activity against human HCCLM3 cells xenografted in nude mouse assessed as decrease in tumor volume at 4 to 8 mg/kg, PO in presence of 32 mg/kg sorafenib measured every other day for 21 days; assay type: functional, organism-based; settings: dose 4-8 mg/kg, time 21.0 day
[38] = Toxicity in nude mouse xenografted with human HCCLM3 cells assessed as spleen damage at 1 to 8 mg/kg, PO in presence of sorafenib measured for 21 days by H and E staining based analysis; assay type: organism-based; settings: in vivo, 504 h, dose 1-8 mg/kg, time 21 day
[39] = Toxicity in nude mouse xenografted with human HCCLM3 cells assessed as lung damage at 1 to 8 mg/kg, PO in presence of sorafenib measured for 21 days by H and E staining based analysis; assay type: organism-based; settings: in vivo, 504 h, dose 1-8 mg/kg, time 21 day
[40] = test system: HCCLM3; assay: Antitumor activity against human HCCLM3 cells xenografted in nude mouse assessed as decrease in tumor volume at 4 to 8 mg/kg, PO measured every other day for 21 days; assay type: functional, organism-based; settings: dose 4-8 mg/kg, time 21.0 day
[41] = Toxicity in nude mouse xenografted with human HCCLM3 cells assessed as spleen damage at 4 to 8 mg/kg, PO measured for 21 days by H and E staining based analysis; assay type: organism-based; settings: in vivo, 504 h, dose 4-8 mg/kg, time 21 day
[42] = Toxicity in nude mouse xenografted with human HCCLM3 cells assessed as liver damage at 1 to 8 mg/kg, PO in presence of sorafenib measured for 21 days by H and E staining based analysis; assay type: organism-based; settings: in vivo, 504 h, dose 1-8 mg/kg, time 21 day

CCCCCCCCCCCC[C@@H](O)[C@H]1CC[C@H]([C@H](O)CCCCC(=O)CCCCC[C@@H](O)CC2=C[C@H](C)OC2=O)O1 [ANNONACINONE]
inhibition [1]: Active
Activity [2]: 3.4
IC50 [3]: 15.5 µM
IC50 [4]: 15.5 µM
Activity [5]: 3.4
IC50 [6]: 15.5 µM
Activity [7]: 3.4
IC50 [8]: 15.5 µM
Activity [9]: 3.4

CCCCCCCCCC[C@H](O)[C@@H](O)C[C@H](O)[C@@H]1CC[C@@H](CCCCCCCCCC[C@@H](O)CC2=C[C@H](C)OC2=O)O1
inhibition [1]: Active
Activity [10]: 1.27%
Activity [2]: 17
IC50 [3]: > 50 µM
viability at 4 µM [11]: 97.2%
IC50 [4]: > 50 µM
Activity [5]: 7.1
Activity [12]: 8.66%
IC50 [6]: > 50 µM
Activity [13]: 4.44%
Activity [14]: 1.36%
inhibition [15]: Active
inhibition [16]: Active
viability at 4 µM [17]: 80.5%
Activity [18]: 0.17%
Activity [7]: 13.9
inhibition [19]: Active
inhibition [20]: Active
Activity [21]: 11.6%
IC50 [8]: > 50 µM
Activity [22]: 6.45%
Activity [9]: 3.7
Activity [23]: Active
inhibition [24]: Active
inhibition [25]: Active
inhibition [26]: Active

CCCCCCCCCCCC[C@@H](O)[C@H]1CC[C@H]([C@H](O)CCCC[C@@H](O)CCCCC[C@@H](O)CC2=C[C@H](C)OC2=O)O1
Activity [27]: Non-Toxic
inhibition [1]: Active
Activity [10]: 1.7%
Activity [2]: 0.7
Activity [28]: Non-Toxic
IC50 [3]: 7.4 µM
viability at 4 µM [11]: 93.6%
Activity [29]: Non-Toxic
IC50 [4]: 7.4 µM
Activity [5]: 1.6
Activity [12]: 17.91%
IC50 [6]: 7.4 µM
Activity [30]: Active
Activity [13]: 5.02%
Activity [31]: Active
Activity [14]: 3.24%
inhibition [15]: Active
inhibition [16]: Active
viability at 4 µM [17]: 73.8%
Activity [32]: Non-Toxic
Activity [33]: Non-Toxic
Activity [34]: Non-Toxic
Activity [35]: Non-Toxic
Activity [18]: 1.46%
Activity [36]: Non-Toxic
Activity [7]: 12.1
Activity [37]: Active
Activity [38]: Non-Toxic
inhibition [19]: Active
inhibition [20]: Active
Activity [39]: Non-Toxic
Activity [21]: 18.5%
IC50 [8]: 7.4 µM
Activity [22]: 3.24%
Activity [9]: 4.1
Activity [23]: Active
Activity [40]: Active
inhibition [24]: Active
inhibition [25]: Active
inhibition [26]: Active
Activity [41]: Non-Toxic
Activity [42]: Non-Toxic

CCCCCCCCCCCC[C@H](O)[C@@H]1CC[C@H]([C@H](O)CCCCC(=O)CCCCC[C@@H](O)CC2=C[C@H](C)OC2=O)O1
inhibition [1]: Active
Activity [2]: 0.7
IC50 [3]: 15 µM
IC50 [4]: 15 µM
Activity [5]: 0.7
IC50 [6]: 15 µM
Activity [7]: 0.7
IC50 [8]: 15 µM
Activity [9]: 0.7
